Where “and” joins values, the source holds several entries; their conditions need not be identical. Identical values can stand only once. Entries after “also recorded” stand apart in the source; their conditions may differ.
How the values were obtained:
[1] = tested on: mature dendritic cells (mDCs); assay: Luciferase expression after electroporation of 5′-capped luciferase RNA into mature dendritic cells; format: cell-based, human; conditions: for protein expression (in words) / transl. efficiency: luciferase RNA; for transl. efficiency: maximal slope of curve; for transl. efficiency / relative total protein expression: m7GpppG RNA set to 1, mean ± SD; for relative total protein expression: luciferase, 72 h time course; for time of max.: time point of maximal luciferase expression, mean ± SD
[2] = tested on: immature dendritic cells (iDCs); assay: Luciferase expression after electroporation of 5′-capped luciferase RNA into immature dendritic cells; format: cell-based, human; conditions: for transl. efficiency: maximal slope of curve; for transl. efficiency / relative total protein expression: m7GpppG RNA set to 1, mean ± SD; for relative total protein expression: luciferase, 72 h time course
[3] = tested on: immature dendritic cells (iDCs); assay: RNA stability (half-life) by real time RT-PCR of d2eGFP RNA in immature dendritic cells; format: cell-based, human
[4] = tested on: CD8^+-T-cells; assay: De novo T-cell priming after intranodal RNA immunization (tetramer staining); format: in vivo; conditions: mice; intranodal immunization day 0 and day 3; day 8
Description: FIG. 6. Effect of the 5′-cap structure on de novo priming of T-cells after intranodal immunization with RNA. Mice (n=5) have been immunized by intranodal injection twice […] (day 0 and day 3) with the same amount of RNA encoding a specific peptide antigen which either carries ARCA or beta-S-ARCA(D1) at the 5′-end. The frequency of tetramer positive CD8^+-cells was determined on day 8 using tetramer analysis. (A) Representative dot plots of cells from the peripheral blood and the spleen of mice which have been immunized with ARCA or beta-S-ARCA(D1) RNA (as indicated). (B) Average number of tetramer positive CD8^+-cells±standard error of the mean (in %) as measured on day 8. The significance was determined using statistical analyses (*: P<0.075).
Mice were immunized by intranodal injection of naked RNA twice […] (at day 0 and at day 3) which encodes a specific antigen with the above modifications. On day 8 the frequency of antigen-specific T-cells in peripheral blood and in the spleen was determined using tetramer staining. As shown in FIG. 6 about 5% of the CD8^+-T-cells in peripheral blood and about 6% of the CD8^+-T-cells in the spleen were tetramer positive after duplicate immunization with ARCA RNA. Using beta-S-ARCA(D1) RNA more than 12% and 13% tetramer positive CD8^+-T-cells in peripheral blood and in the spleen, respectively, were measured.

[5] = tested on: immature dendritic cells; assay: Luciferase activity with increasing RNA amounts (40 vs 20 pmol) in immature dendritic cells; format: cell-based; conditions: iDCs
Description: (§1) FIG. 3. Competition for translation between ARCA- and beta-S-ARCA(D1)-capped RNAs. Immature dendritic cells (iDCs) were electroporated with (A) increasing amounts of luciferase-encoding RNAs or (B) the indicated amounts of luciferase- and d2eGFP-encoding mRNAs, which were co-transcriptionally capped either with ARCA or beta-S-ARCA(D1) as indicated. The luciferase activity was measured after 2, 4, 8, 24, 48, and 72 hours. Shown is (A) the ratio between the luciferase activities obtained after electroporation with 40 and 20 pmol luciferase-encoding RNAs (±SD of two independent experiments), and (B) the relative luciferase activity compared to cells electroporated with only luciferase-encoding RNA without RNA (set to 1 for both ARCA- and beta-S-ARCA(D1)-capped RNA).
The results described so far indicate that the translational efficiency of an mRNA is influenced in dendritic cells by the type of the cap structure at its 5′ end. This is most likely due to differences in the efficiency by which the translational machinery is recruited to the different 5′ cap-structures. To corroborate this, we next analyzed (i) the effect of the RNA dose that is used for electroporation into immature dendritic cells, and (ii) the impact of a second RNA co-electroporated into immature dendritic cells on the protein expression. By increasing the amount of the electroporated mRNA, it is expected that at some point one or more translation factor(s) will become rate limiting in the cell, which will then restrict the amount of protein that can be synthesized from the exogenous RNA. Similarly, a second RNA will compete for the translation machinery, again influencing the translation efficiency.
Increasing amounts (20 pmol and 40 pmol) of luciferase-encoding RNAs co-transcriptionally capped with either ARCA or beta-S-ARCA(D1) were electroporated into immature dendritic cells, and the luciferase activity was measured after 2, 4, 8, 24, 48, and 72 hours. […] At this time-point, the level of luciferase protein was only about 1.6-fold as high as when half the amount of RNA was used. This ratio decreased even further 48 and 72 hours after electroporation (1.4- and 1.2-fold, respectively).

[6] = tested on: inguinal lymph nodes of mice; assay: In vivo luciferase imaging after intranodal injection of luciferase RNA
Description: FIG. 5. Effect of the 5′-cap structure on protein expression in vivo. Mice (n=9) have been injected intranodally with the same amount of luciferase encoding RNA with ARCA or beta-S-ARCA(D1) at the 5′-end (as indicated). The luciferase activity (given in RLU) has been measured after 2, 4, 8, 24, 48, and 72 hours. (A) Images of whole animals at the indicated time points of a representative mouse, which has been injected with ARCA or beta-S-ARCA(D1) RNA are shown. (B) Mean±standard error of the mean as measured in the time course. The significance has been determined using statistical analyses (*: P<0.005 and **: P<0.02).
RNA which is administered in this way is primarily taken up by immature dendritic cells. Thus, we have investigated whether stronger protein expression is also observed in lymph nodes for beta-S-ARCA(D1) RNA compared to RNAs with other cap structures (analyzed exemplarily for ARCA which we have applied in the earlier studies). […] After uptake of the RNA by cells of the lymph nodes and translation of the encoded luciferase, protein expression was quantified by measuring luciferase activity using in vivo imaging. […] 25 min after luciferin injection, photons emitted were quantified for an integration time of 1 min. […] To quantify the bioluminescence, regions of interest (ROI) were drawn and total flux (photons/sec, p/s) in ROI was measured. […]

[7] = target: Dcp2 (Homo sapiens, UniProt Q8IU60); conditions: background, earlier work; cited from earlier work
[8] = tested on: immature dendritic cells; assay: d2eGFP expression (flow cytometry) after introduction of capped RNA into immature dendritic cells; format: cell-based, human; conditions: iDCs
[9] = tested on: immature dendritic cells; assay: Competition for translation: co-electroporation of d2eGFP RNA with luciferase RNA in immature dendritic cells; format: cell-based; conditions: iDCs; same amount of d2eGFP RNA; after 24, 48, and 72 hours vs luciferase RNA only
Description: as §1
The results described so far indicate that the translational efficiency of an mRNA is influenced in dendritic cells by the type of the cap structure at its 5′ end. This is most likely due to differences in the efficiency by which the translational machinery is recruited to the different 5′ cap-structures. To corroborate this, we next analyzed (i) the effect of the RNA dose that is used for electroporation into immature dendritic cells, and (ii) the impact of a second RNA co-electroporated into immature dendritic cells on the protein expression. […]

[10] = tested on: mature dendritic cells; assay: d2eGFP expression (flow cytometry) after introduction of capped RNA into mature dendritic cells; format: cell-based, human; conditions: mDCs
[11] = tested on: HC11 cells; conditions: background, earlier work; cited from earlier work
[12] = time point of maximal luciferase expression (functional RNA stability), mean ± SD

Substance	protein expression (in words) [1]	transl. efficiency [1]	relative total protein expression [1]	time of max. [1] [h]	total protein expression (in words) ([2]; luciferase RNA)	transl. efficiency ([2]; luciferase RNA)	relative total protein expression [2]	time of max. [2, 12]	translation efficiency increase in comparison to RNA with m^7GpppG ([2]; luciferase RNA)	further results
m^7Gppppm^7G [m7Gppppm7G]	poorly translated	0.56 ± 0.04	0.176 ± 0.001	6.0 ± 0.3	even lower than that of RNA which has been transcribed in presence of m^7GpppG	0.20 ± 0.10	0.404 ± 0.004	4.9 ± 0.1 h		RNA stability / degradation (in words) [3]: most unstable RNA
m2^(7,2′-O)GppspG(D1) [beta-S-ARCA(D1)]		3.05 ± 0.14	3.884 ± 0.032	20.1 ± 0.1	highest total protein expression	3.36 ± 0.09	13.094 ± 0.307		about 3.4 fold	tetramer positive CD8^+-T-cells in peripheral blood [4]: more than 12%; tetramer positive CD8^+-T-cells in the spleen [4]: > 13%; signal with 40 pmol relative to 20 pmol RNA ([5]; each time-point (2-72 hours)): about twice as high; expression increase (factor) compared to RNA with ARCA or post-transcriptionally modified RNA ([2]; luciferase RNA): around 3; total protein expression increase compared to RNA synthesized in presence of m^7GpppG ([2]; luciferase RNA): more than 13 fold; total protein expression increase compared to beta-S-ARCA(D2) RNA ([2]; luciferase RNA): about 2 fold; protein expression compared to RNA with ARCA (in words) ([6]; 2, 4, 8, 24, 48, and 72 hours after intranodal application): higher at each time point; expression throughout the entire time course (integral of the curve), increase vs ARCA RNA ([6]; intranodal injection, luciferase, 2-72 hours): about 8 fold; Dcp2 cleavage compared to RNA with unmodified ARCA 5′-cap [7]: 71%; RNA stability / degradation (in words) [3]: most stable RNA; total protein expression (in words) [8]: highest total protein expression
GpppG	do not result in protein expression	0.31 ± 0.02	0.593 ± 0.005	27.5 ± 0.5	do not result in any significant expression	0.18 ± 0.01	0.221 ± 0.001	11.5 ± 0.0 h		
m2^(7,3′-O)GpppG [ARCA]		2.16 ± 0.00	2.526 ± 0.015	17.5 ± 0.3		2.52 ± 0.19	4.777 ± 0.042	12 h and 12.6 ± 0.1 h	about 2.5 fold	effect of co-electroporated d2eGFP RNA on expression of luciferase RNA [9]: decreased the expression; tetramer positive CD8^+-T-cells in peripheral blood [4]: about 5%; tetramer positive CD8^+-T-cells in the spleen [4]: about 6%; level of luciferase protein with 40 pmol relative to 20 pmol RNA ([5]; 24 hours after electroporation): about 1.6 fold; level of luciferase protein with 40 pmol relative to 20 pmol RNA ([5]; 48 hours after electroporation): 1.4 fold; level of luciferase protein with 40 pmol relative to 20 pmol RNA ([5]; 72 hours after electroporation): 1.2 fold
ApppG	do not result in protein expression	0.01 ± 0.00	0.008 ± 0.000		do not result in any significant expression	0.01 ± 0.00	0.022 ± 0.001			
m2^(7,2′-O)GppspG(D2) [beta-S-ARCA(D2)]	highest protein expression	3.30 ± 0.03	4.042 ± 0.053	19.4 ± 0.1	second best total expression	3.53 ± 0.17	6.570 ± 0.075	12.8 ± 0.0 h	about 3.5 fold	total protein expression (in words) [10]: highest total protein expression; Dcp2 cleavage compared to RNA with unmodified ARCA 5′-cap [7]: 6%; translation / total expression in HC11 cells (in words) [11]: more efficiently translated in HC11 cells; also recorded: strongest total expression
m^7GpppG [m7GpppG]		1.00 ± 0.05	1.000 ± 0.003	16.0 ± 0.3		1.00 ± 0.04	1.000 ± 0.007	8.1 ± 1.1 h		time of max. (hours) ([2]; time point of maximal luciferase expression (functional RNA stability), mean ± SD, listed as m^7GpppG): around 8 hours
